This note sets out measurements from patent US4282245A, “Dibenzothiepin derivatives and a process for producing the same” (Nippon Chemiphar Co., Ltd., priority 1978, dated 1981).

Read-outs that look alike come from different tables or passages of the source.

In this test the test system is edema in the hind paws (carrageenan). As to the kind of experiment: carrageenan-induced hind paw edema in rats, oral administration (antiinflammatory effect). Format: in vivo, Male Wistar rats. As to conditions: for inhibition in vivo at 2 mg/kg: Rattus norvegicus, read-out: Inhibition (%) (after 3 hours); for Rate to Indomethacin: relative to Indomethacin = 1.00. The procedure: Male Wistar rats each weighing about 100 g, one group consisting of 5 to 7 animals, were orally given the compounds of the present invention and Indomethacin as a contrast, and edema was then induced in the hind paws by subcutaneous injection of 0.1 ml of 1% carrageenan one hour after the administration of the test compounds. Thereafter, the volumes of the hind paws with a predetermined lapse of time were measured by a volume differential meter.

Setting [1] is: oral, 2 mg/kg, after 3 hours, carrageenan hind paw edema, male Wistar rats.
[2] abbreviates: oral, 2 mg/kg, carrageenan hind paw edema, male Wistar rats.

Regarding `COc1ccc2c(c1)CC(=O)c1cc(C(C)C(N)=O)ccc1S2` (stereo not drawn) [Compound 1, 2(10,11-dihydro-8-methoxy-11-oxodibenzo[b,f]thiepin2-yl)-propionamide], under setting [1], the inhibition in vivo at 2 mg/kg came out at 67.8%. Besides, the “Rate to Indomethacin” value under setting [2] amounted to 5.2.

Turning to `COc1ccc2c(c1)CC(=O)c1cc(C(C)C(=O)O)ccc1S2` (stereo not drawn) [Compound 2, 2(10,11-dihydro-8-methoxy-11-oxodibenzo[b,f]thiepin2-yl)-propionic acid], the inhibition in vivo at 2 mg/kg under setting [1] is 48.2%. Moreover, the “Rate to Indomethacin” value under setting [2] worked out at 1.9.

With `CCOc1ccc2c(c1)CC(=O)c1cc(C(C)C(N)=O)ccc1S2` (stereo not drawn) [Compound 3, 2(10,11-dihydro-8-ethoxy-11-oxodibenzo[b,f]thiepin2-yl)-propionamide], under setting [1], the inhibition in vivo at 2 mg/kg came to 40.4%. The “Rate to Indomethacin” value under setting [2] worked out at 1.2.

Turning to `CC(C(N)=O)c1ccc2c(c1)C(=O)Cc1cc(Cl)ccc1S2` (stereo not drawn) [Compound 4, 2(8-chloro-10,11-dihydro-11-oxodibenzo[b,f]thiepin2-yl)-propionamide], the inhibition in vivo at 2 mg/kg under setting [1] was found to be 46.8%. In addition, the “Rate to Indomethacin” value under setting [2] came to 1.4.

As to `CC(C(=O)O)c1ccc2c(c1)C(=O)Cc1cc(Cl)ccc1S2` (stereo not drawn) [Compound 5, 2(8-chloro-10,11-dihydro-11-oxodibenzo[b,f]thiepin2-yl)-propionic acid], the inhibition in vivo at 2 mg/kg under setting [1] is 61.6%. The “Rate to Indomethacin” value under setting [2] is 2.7.

In the case of `CC(C(N)=O)c1ccc2c(c1)C(=O)Cc1cc(F)ccc1S2` (stereo not drawn) [Compound 6, 2(10,11-dihydro-8-fluoro-11-oxodibenzo[b,f]thiepin2-yl)-propionamide], the inhibition in vivo at 2 mg/kg under setting [1] worked out at 58.4%. For the same compound, the “Rate to Indomethacin” value under setting [2] worked out at 2.29.

Take `CC(C(=O)O)c1ccc2c(c1)C(=O)Cc1cc(F)ccc1S2` (stereo not drawn) [Compound 7, 2(10,11-dihydro-8-fluoro-11-oxodibenzo[b,f]thiepin2-yl)-propionic acid]: under setting [1], the inhibition in vivo at 2 mg/kg turned out to be 66.8%. Besides, under setting [2], the “Rate to Indomethacin” value was 4.56.

In the case of `CC(C(N)=O)c1ccc2c(c1)C(=O)Cc1ccc(F)cc1S2` (stereo not drawn) [Compound 8, 2(10,11-dihydro-7-fluoro-11-oxodibenzo[b,f]thiepin2-yl)-propionamide], under setting [1], the inhibition in vivo at 2 mg/kg amounted to 41.9%. The “Rate to Indomethacin” value under setting [2] is recorded as 1.45.

Turning to `COc1ccc2c(c1)c(CC(=O)O)c(C)n2C(=O)c1ccc(Cl)cc1` [Indomethacin, reference compound], for the setting “po, 3 h”, the inhibition in vivo at 2 mg/kg was found to be 34.5%. The “Rate to Indomethacin” value under setting [2] was determined as 1.00.
